The structures appear in SMILES notation.

One assay relates to Leptosphaeria nodorum. Description: Activity against Septoria nodorum blotch of wheat caused by Leptosphaeria nodorum.
The subject of another assay is Alternaria solani. Description: Persistency against early blight on tomatoes caused by Alternaria solani, 5 day protective treatment. Conditions: tomato.

Procedure for Alternaria solani: (§1) The mixture was then made up with water to 100 ml.
To test for persistency, the leaves were infected with an aqueous spore suspension of Alternaria solani in a 2% strength biomalt solution having a density of 0.17×10^6 spores/ml only after 5 days. The plants were then placed in a water-vapor-saturated chamber at temperatures between 20 and 22° C.
Evaluation was carried out analogously to Example 1.
Procedure for Leptosphaeria nodorum: as §1
The next day, the pots were inoculated with an aqueous spore suspension of Leptosphaeria nodorum (syn. Stagonospora nodorum, Septoria nodorum). The plants were then placed in a chamber at 20° C. and maximum atmospheric humidity.

For the compound `Fc1ccc([C@]2(Cn3cncn3)O[C@H]2c2ccccc2Cl)cc1` (racemic) [epoxiconazole, (2RS,3SR)-1-[3-(2-chlorophenyl)-2,3-epoxy-2-(4-fluorophenyl)propyl]-1H-1,2,4-triazole], the “Efficacy in % of the untrated control” value in the assay with Leptosphaeria nodorum (0.4 ppm in spray liquor) stood at 0%; in the assay on Leptosphaeria nodorum (0.8 ppm in spray liquor), 0%; with Leptosphaeria nodorum (1.6 ppm in spray liquor) it was 33%; with Alternaria solani (0.8 ppm in spray liquor), 0%; in the assay with Alternaria solani (1.6 ppm in spray liquor), 0%; in the assay with Alternaria solani (3.1 ppm in spray liquor), 0%. Besides, the “Efficacy in % of the untrated control” value with Alternaria solani (6.25 ppm in spray liquor) and with Alternaria solani (25 ppm in spray liquor) was 0% throughout.
Turning to `O=C(Nc1ccccc1-c1ccc(Cl)cc1)c1cccnc1Cl` [boscalid, 2-chloro-N-(4′-chlorobiphenyl-2-yl)nicotinamide], the “Efficacy in % of the untrated control” value in the assay with Leptosphaeria nodorum (1.6 ppm in spray liquor) is 0%; with Leptosphaeria nodorum (3.1 ppm in spray liquor), 11%; in the assay on Leptosphaeria nodorum (12.5 ppm in spray liquor) it was 33%; in the assay with Alternaria solani (6.25 ppm in spray liquor), 0%.
Consider `CC1(C)CCC(Cc2ccc(Cl)cc2)C1(O)Cn1cncn1` (stereo not drawn) [metconazole, 5-(4-chlorobenzyl)-2,2-dimethyl-1-[1,2,4]triazol-1-ylmethylcyclopentanol], for which the entries for the “Efficacy in % of the untrated control” value in the assay on Leptosphaeria nodorum (0.4 ppm in spray liquor), with Leptosphaeria nodorum (0.8 ppm in spray liquor) and with Leptosphaeria nodorum (1.6 ppm in spray liquor) were 0%, 0% and 56%, respectively.

(Values after patent US20110136665A1.)
